According to PMC12635268, “Novel antimicrobial peptides and peptide-microbiome crosstalk in Appalachian salamander skin” (NPJ Biofilms and Microbiomes, 2025):
Peptide text beside a SMILES is read from it.

Experiments:
A. baumannii ATCC 19606 = test: microbe, parasite or virus in culture; details: ATCC 19606, 20 h
Method: (§1) Antimicrobial susceptibility testing of the 20 synthesized peptides against 17 bacterial strains of clinical relevance in the ESKAPEE panel was conducted using minimum inhibitory concentration (MIC) assays following the broth microdilution method outlined by Parker et al.[91]. The ESKAPEE panel is comprised of fourteen American Type Culture Collection (ATCC) strains and three Multidrug Resistant Organism Repository and Surveillance Network (MRSN) bacterial strains. These strains represent at least one drug-susceptible strain and one drug-resistant strain for each bacterium to assess drug efficacy across various resistance mechanisms. This panel is comprised of the following bacterial species and strains: E. faecium (ATCC 19434, ATCC 49224), S. aureus (ATCC 25923, ATCC 43300), K. pneumoniae (ATCC 700603, ATCC 13883, MRSN 1320), A. baumannii (ATCC 17978, ATCC 19606, MRSN 959), P. aeruginosa (ATCC 15692, ATCC 27853, MRSN 5519), E. cloacae (ATCC 13047, ATCC 35549), and E. coli (ATCC 35218, ATCC 43888). Bacteria were grown in cation-adjusted Mueller-Hinton broth (CAMHB) to achieve a final inoculum of 1 × 10⁵ CFU/mL. CAMHB is selected for its batch-to-batch reproducibility, low levels of antimicrobial inhibitors, and ability to support the growth of most bacterial pathogens.
(§2) Briefly, lyophilized peptides were dissolved in 0.2% TFA + 0.4% BSA in water to 2.56 mg/mL, ultrasonicated for 20 min, diluted 10-fold into CAMHB, and then serially diluted 2-fold in 0.02% TFA + 0.04% BSA in CAMHB and assayed at a concentration of 0.25 to 128 μg/mL. Assays were set up using the Tecan Freedom EVO liquid handling robot and software (Tecan, Switzerland) with 50 μL of bacterial inoculum and 50 μL of peptide transferred into round-bottom 96-well microtiter plates. Each plate assay was performed in duplicate and incubated at 37 °C for 20 h without agitation. Bacterial growth was assessed using the BIOMIC V3 Image Analysis system (Giles Scientific, USA) and the MIC values were determined visually according to the Clinical and Laboratory Standards Institute (CLSI) guidelines.

A. baumannii ATCC 17978 = test: microbe, parasite or virus in culture; details: ATCC 17978, 20 h
Method: as §1, §2

K. pneumoniae ATCC 13883 = test: microbe, parasite or virus in culture; details: ATCC 13883, 20 h
Method: as §1, §2

P. aeruginosa MRSN 5519 = test: microbe, parasite or virus in culture; details: MRSN 5519, 20 h
Method: as §1, §2

E. faecium ATCC 19434 = test: microbe, parasite or virus in culture; details: ATCC 19434, 20 h
Method: as §1, §2

E. faecium ATCC 49224 = test: microbe, parasite or virus in culture; details: ATCC 49224, 20 h
Method: as §1, §2

P. aeruginosa ATCC 27853 = test: microbe, parasite or virus in culture; details: ATCC 27853, 20 h
Method: as §1, §2

S. aureus ATCC 25923 = test: microbe, parasite or virus in culture; details: ATCC 25923, 20 h
Method: as §1, §2

E. cloacae ATCC 13047 = test: microbe, parasite or virus in culture; details: ATCC 13047, 20 h
Method: as §1, §2

E. coli ATCC 43888 = test: microbe, parasite or virus in culture; details: ATCC 43888, 20 h
Method: as §1, §2

E. cloacae ATCC 35549 = test: microbe, parasite or virus in culture; details: ATCC 35549, 20 h
Method: as §1, §2

P. aeruginosa PA01 (Si) = test: microbe, parasite or virus in culture; format: cell-based; details: Si
From the text: Supplement 41522_2025_837_MOESM13_ESM.xlsx, sheet "Table_S13_ESKAPEE-MIC" | column: Bacterial MIC (µg/mL)

K. pneumoniae 4640 = details: 4640, 20 h
[1] = design: method as in Biomatik (vendor); details: 1.0 mg peptide in 1.0 ml solvent; peptides synthesized by Biomatik; ref Biomatik (vendor); cited from earlier work

SMILES	Bacterial MIC (A. baumannii ATCC 19606) [µg/mL]	Bacterial MIC (A. baumannii ATCC 17978) [µg/mL]	Bacterial MIC (K. pneumoniae ATCC 13883) [µg/mL]	Bacterial MIC (P. aeruginosa MRSN 5519) [µg/mL]	Bacterial MIC (E. faecium ATCC 19434) [µg/mL]	Bacterial MIC (E. faecium ATCC 49224) [µg/mL]	Bacterial MIC (P. aeruginosa ATCC 27853) [µg/mL]	Bacterial MIC (S. aureus ATCC 25923) [µg/mL]	Bacterial MIC (E. cloacae ATCC 13047) [µg/mL]	Bacterial MIC (E. coli ATCC 43888) [µg/mL]	Bacterial MIC (E. cloacae ATCC 35549) [µg/mL]	Bacterial MIC (P. aeruginosa PA01 (Si)) [µg/mL]	Bacterial MIC (K. pneumoniae 4640) [µg/mL]	Suggest solvent (solubility) [1]
CC[C@H](C)[C@H](N)C(=O)N[C@@H](CC(C)C)C(=O)N[C@@H](CCCNC(=N)N)C(=O)N[C@@H](CCCCN)C(=O)N1CCC[C@H]1C(=O)N[C@@H](CCC(=O)O)C(=O)N[C@@H](CCCCN)C(=O)N[C@@H](CC(=O)O)C(=O)N[C@@H](CC(=O)O)C(=O)N[C@@H](CC(=O)O)C(=O)N[C@H](C(=O)N[C@@H](CO)C(=O)N[C@@H](CO)C(=O)N[C@@H](CCCNC(=N)N)C(=O)N[C@H](C(=O)NCC(=O)N[C@@H](Cc1ccc(O)cc1)C(=O)N[C@@H](CC(C)C)C(=O)N[C@@H](Cc1ccccc1)C(=O)N[C@@H](CS)C(=O)N[C@@H](CS)C(=O)N[C@@H](CCCCN)C(=O)N[C@@H](CCSC)C(=O)N[C@@H](CCCNC(=N)N)C(=O)N[C@@H](CC(C)C)C(=O)N[C@@H](CS)C(=O)N[C@@H](C)C(=O)N[C@@H](CS)C(=O)N[C@@H](CCCNC(=N)N)C(=O)N[C@@H](CCCNC(=N)N)C(=O)N[C@@H](CO)C(=O)O)[C@@H](C)CC)[C@@H](C)O [Tr-Eb4] (H-ILRKPEKDDDTSSRIGYLFCCKMRLCACRRS-OH; N-terminus and C-terminus assumed)	>128.000	>128.000	>128.000	>128.000	>128.000	>128.000	>128.000	>128.000	>128.000	>128.000	>128.000	>128.000	>128.000	1.0mg peptide soluble in 1.0ml DMSO
CC[C@H](C)[C@H](NC(=O)[C@H](CCSC)NC(=O)[C@H](CS)NC(=O)[C@H](CC(C)C)NC(=O)[C@@H](NC(=O)[C@H](CS)NC(=O)[C@H](CS)NC(=O)[C@H](CCSC)NC(=O)[C@H](CS)NC(=O)[C@H](CO)NC(=O)[C@H](CC(C)C)NC(=O)[C@H](CCC(N)=O)NC(=O)[C@H](CCCCN)NC(=O)[C@H](Cc1c[nH]cn1)NC(=O)[C@H](CCC(N)=O)NC(=O)[C@H](Cc1c[nH]c2ccccc12)NC(=O)[C@@H](NC(=O)[C@@H](NC(=O)[C@H](CCC(=O)O)NC(=O)[C@@H](NC(=O)[C@H](CC(=O)O)NC(=O)[C@@H](NC(=O)[C@H](CC(C)C)NC(=O)[C@H](CC(=O)O)NC(=O)[C@@H](N)CCCCN)[C@@H](C)CC)[C@@H](C)O)[C@@H](C)O)[C@@H](C)O)C(C)C)C(=O)N[C@@H](C)C(=O)N[C@@H](CCCCN)C(=O)N[C@@H](CCCNC(=N)N)C(=O)N[C@@H](CS)C(=O)N[C@@H](CS)C(=O)O [Tr-Pc15] (H-KDLIDTETTWQHKQLSCMCCVLCMIAKRCC-OH; N-terminus and C-terminus assumed)	>128.000	>128.000	>128.000	>128.000	>128.000	>128.000	>128.000	>128.000	>128.000	>128.000	>128.000	>128.000	>128.000	1.0mg peptide soluble in 1.0ml DMSO
